Measurements: patent publication US10844049B2, “GLP-1R agonists and uses thereof” (QILU REGOR THERAPEUTICS INC., priority 2018, dated 2020)
pEC50: −log10 of the molar value.

Biological target: GLP1R (Homo sapiens, UniProt P43220)
Assay: GLP1R cAMP HTRF assay, HEK293/GLP-1R/CRE/Luc (HEK293T cells)
Type: cell-based
Conditions: read-out: EC50
Procedure: GLP-1R-mediated agonist activity was determined with a cell-based functional assay utilizing an HTRF (Homogeneous Time-Resolved Fluorescence) cAMP detection kit (cAMP Dynamic 2 Assay Kit; CisBio cat #62AM4PEC) that measures cAMP levels in the cell. The method is a competitive immunoassay between native cAMP produced by the cells and exogenous cAMP labeled with the dye d2. The tracer binding is visualized by a mAb anti-cAMP labeled with Cryptate. The specific signal (i.e., energy transfer) is inversely proportional to the concentration of cAMP in either standard or experimental sample.
A cell line stably expressing the receptor was isolated.
Varying concentrations of each compound to be tested (in DMSO) were diluted in DMSO to obtain 200× compound working solution first and then 50 nl compounds were added to a white 384-well assay plate (Greiner 784075) with ECHO. The final DMSO concentration was 0.5%. The compound concentration range may be adjusted at any time.
Cells were removed from cryopreservation, re-suspended in 5 mL of Dulbecco's Phosphate Buffered Saline (DPBS-Sigma Cat # D8537) and centrifuged at 900 g for 5 min at 22° C. The cell pellet was then re-suspended in 1 mL of assay buffer [DPBS with 500 μM IBMX (Sigma #15879) and 0.1% BSA (Sigma # A1933). IBMX and BSA were freshly added on the day of assay]. A 10 μL sample of the cell suspension was counted on an Invitrogen Countess II to determine cell viability and cell count per mL. The remaining cell suspension was then adjusted with assay buffer to deliver 1000 viable cells per well using a Matrix Combi Multidrop reagent dispenser. 10 μL cell suspensions were added to each well of the assay plate which already contains compound. The plate was sealed and incubated at 37° C. with 5% CO2 for 30 minutes.
Following the 30 minute incubation, 5 μL of labeled d2 cAMP and 5 μL of anti-cAMP antibody (both diluted 1:20 in cell lysis buffer; as described in the manufacturer's assay protocol) were added to each well of the assay plate. The plates w ere then incubated at room temperature and after 60 minutes, changes in the HTRF signal were read with an Envision multi-label plate reader using excitation of 330 nm and emissions of 615 and 665 nm. Raw data were converted to nM cAMP by interpolation from a cAMP standard curve (as described in the manufacturer's assay protocol) and the percent effect was determined relative to a saturating concentration of the full agonist GLP-17-37 (10 nM) included on each plate. EC50 determinations were made from agonist dose-response curves analyzed with a curve fitting program using a 4-parameter logistic dose response equation.
3) Anti-cAMP antibody-cryptate working solution preparation • c) The lyophilisate was reconstituted with appropriate amount of distilled water according to manufacturer's instruction to make working stock which can be aliquoted and frozen (−20° C.). • d) The working stock solution was diluted 1:20 in the conjugate and lysis buffer before use. Procedures Procedures for Cell Suspension Preparation • 1. Frozen cells were thawed very briefly in a 37° C. water bath under sterile conditions until just before ice completely melt (for about 1 minute) with a continuous agitation. Caution was taken because a longer incubation could result in cell death. • 2. DMSO was removed from the media by carefully transferring thawed cells to a sterile 15/50 mL tube, filling a tube with 10-50 mL of complete media pre-warmed to 37° C., and allowing the cells to sit 5 min before centrifuging at 900 rpm for 5 minutes for cell collection. • 3. The cells were resuspended with assay buffer. • 4. For stable GLP1-R assay, the optimized cell density is 1000 cells/well. Caution was taken because cell density optimization was crucial and needed to be optimized in different laboratories. The level of cAMP produced by the cells must fall within the linear range of the standard curve.

GLP1R, sequence (P43220 24-463): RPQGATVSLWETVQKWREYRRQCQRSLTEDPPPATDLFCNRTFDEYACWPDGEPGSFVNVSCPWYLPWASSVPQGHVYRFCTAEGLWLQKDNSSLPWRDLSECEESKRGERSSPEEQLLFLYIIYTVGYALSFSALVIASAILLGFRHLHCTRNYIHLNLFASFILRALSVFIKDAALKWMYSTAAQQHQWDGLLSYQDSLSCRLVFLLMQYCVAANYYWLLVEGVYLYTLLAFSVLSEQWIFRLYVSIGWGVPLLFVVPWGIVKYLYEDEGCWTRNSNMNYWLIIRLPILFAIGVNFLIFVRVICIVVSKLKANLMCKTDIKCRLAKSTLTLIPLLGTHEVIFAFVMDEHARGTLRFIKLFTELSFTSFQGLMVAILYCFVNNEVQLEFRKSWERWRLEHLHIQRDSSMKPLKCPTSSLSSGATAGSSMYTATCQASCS

Molecule | pEC50
O=C(O)c1ccc2nc(CN3CC=C(c4cccc(OCc5cccc(Cl)c5)n4)CC3)n(C[C@@H]3CCO3)c2c1 [Compound 137, (S)-2-((6-((3-chlorobenzyl)oxy)-3′,6′-dihydro-[2,4′-bipyridin]-1′(2′H)-yl)methyl)-1-(oxetan-2-ylmethyl)-1H-benzo[d]imidazole-6-carboxylic add] | ≥ 6.00
(S)-2-((4-(3-((4-cyano-2-fluorobenzyl)oxy)-5-fluorophenyl)-5,6-dihydropyridin-1(2H)-yl)methyl)-1-(oxetan-2-ylmethyl)-1H-benzo[d]imidazole-6-carboxylic add [Compound 218] | ≥ 6.82
O=C(O)c1ccc2nc(CN3CC=C(c4cccc(OCc5cc(Cl)cc(C(F)(F)F)c5)n4)CC3)n(C[C@@H]3CCO3)c2c1 [Compound 143, (S)-2-((6-((3-chloro-5-(trifluoromethyl)benzyl)oxy)-3′,6′-dihydro-[2H′-bipyridin]-1′(2′H)-yl)methyl)-1-(oxetan-2-ylmethyl)-1H-benzo[d]imidazole-6-carboxylic acid] | ≥ 7.82
N#Cc1ccc(COc2cccc(C3CCN(Cc4nc5ccc(C(=O)O)cc5n4C[C@@H]4CCO4)CC3)c2)c(F)c1 [Compound 191, (S)-2-((4-(3-((4-cyano-2-fluorobenzyl)oxy)phenyl)piperidin-1-yl)methyl)-1-(oxetan-2-ylmethyl)-1H-benzo[d]imidazole-6-carboxylic acid] | ≥ 6.82
O=C(O)c1ccc2nc(CN3CC=C(c4ccnc(NCc5ccc(Cl)cc5F)c4)CC3)n(C[C@@H]3CCO3)c2c1 [Compound 130, (S)-2-((2′-((4-chloro-2-fluorobenzyl)amino)-3,6-dihydro-[4,4′-bipyridin]-1(2H)-yl)methyl)-1-(oxetan-2-ylmethyl)-1H-benzo[d]imidazole-6-carboxylic add] | ≥ 6.00
O=C(O)c1ccc2nc(CN3CC=C(c4cccc(OCc5ccccc5F)n4)CC3)n(C[C@@H]3CCO3)c2c1 [Compound 155, (S)-2-((6-((2-fluorobenzyl)oxy)-3′,6′-dihydro-[2H′-bipyridin]-1′(2′H)-yl)methyl)-1-(oxetan-2-ylmethyl)-1H-benzo[d]imidazole-6-carboxylic acid] | ≥ 7.82
O=C(O)c1ccc2nc(CN3CC=C(c4nc(OCc5ccc(C(F)(F)F)nc5)c(F)cc4F)CC3)n(C[C@@H]3CCO3)c2c1 [Compound 220, (S)-2-((3,5-difluoro-6-((6-(trifluoromethyl)pyridin-3-yl)methoxy)-5′,6′-dihydro-[2,4′-bipyridin]-1′(2′H)-yl)methyl)-1-(oxetan-2-ylmethyl)-1H-benzo[d]imidazole-6-carboxylic acid] | ≥ 7.82
O=C(O)c1ccc2nc(CN3CC=C(c4cccc(OCc5ccc(-n6nccn6)cc5)n4)CC3)n(C[C@@H]3CCO3)c2c1 [Compound 243, (S)-2-((6-((4-(2H-1,2,3-triazol-2-yl)benzyl)oxy)-3′,6′-dihydro-[2,4′-bipyridin]-1′(2′H)-yl)methyl)-1-(oxetan-2-ylmethyl)-1H-benzo[d]imidazole-6-carboxylic add] | ≥ 6.82
O=C(O)c1ccc2nc(CN3CC=C(c4cc(OCc5ccc(Cl)cc5F)ncc4F)CC3)n(C[C@@H]3CCO3)c2c1 [Compound 128, (S)-2-((2′-((4-chloro-2-fluorobenzyl)oxy)-5′-fluoro-3,6-dihydro-[4,4′-bipyridin]-1(2H)-yl)methyl)-1-(oxetan-2-ylmethyl)-1H-benzo[d]imidazole-6-carboxylic acid] | ≥ 6.82
O=C(O)c1ccc2nc(CN3CC=C(c4ccc5ccn(Cc6ccc(Cl)cc6F)c5c4)CC3)n(C[C@@H]3CCO3)c2c1 [Compound 27, (S)-2-((4-(1-(4-chloro-2-fluorobenzyl)-1 h-indol-6-yl)-5,6-dihydropyridin-1(2H)-yl)methyl)-1-(oxetan-2-ylmethyl)-1 h-benzo[d]imidazole-6-carboxylic add] | < 6.00
O=C(O)c1ccc2nc(CN3CC=C(c4cccc(OCc5ccc(Cl)cc5)n4)CC3)n(C[C@@H]3CCO3)c2c1 [Compound 44, (S)-2-((6-((4-chlorobenzyl)oxy)-3′,6′-dihydro-[2,4′-bipyridin]-1′(2′H)-yl)methyl)-1-(oxetan-2-ylmethyl)-1H-benzo[d]imidazole-6-carboxylic acid] | ≥ 7.82
CC#Cc1ccc(COc2cccc(C3=CCN(Cc4nc5ccc(C(=O)O)cc5n4C[C@@H]4CCO4)CC3)n2)c(F)c1 [Compound 107, (S)-2-((6-((2-fluoro-4-(prop-1-yn-1-yl)benzyl)oxy)-3′,6′-dihydro-[2,4′-pyridin]-1′(2′H)-yl)methyl)-1-(oxetan-2-ylmethyl)-1H-benzo[d]imidazole-6-carboxylic acid] | ≥ 7.82
O=C(O)c1ccc2nc(CN3CC=C(c4cccc(OCc5ccncc5)n4)CC3)n(C[C@@H]3CCO3)c2c1 [Compound 160, (S)-1-(oxetan-2-ylmethyl)-2-((6-(pyridin-4-ylmethoxy)-5′,6′-dihydro-[2H′-bipyridin]-1′(2′H)-yl)methyl)-1H-benzo[d]imidazole-6-carboxylic acid] | ≥ 6.82
O=C(O)c1ccc2nc(CN3CC=C(c4cccc(OCc5ccccc5)n4)CC3)n(C[C@@H]3CCO3)c2c1 [Compound 73, (S)-2-((6-(benzyloxy)-5′,6′-dihydro-[2,4′-bipyridin]-1′(2′H)-yl)methyl)-1-(oxetan-2-ylmethyl)-1H-benzo[d]imidazole-6-carboxylic add] | ≥ 6.82
COc1ccc(COc2cccc(C3=CCN(Cc4nc5ccc(C(=O)O)cc5n4C[C@@H]4CCO4)CC3)n2)nc1 [Compound 117, (S)-2-((6-((5-methoxypyridin-2-yl)methoxy)-3′,6′-dihydro-[2,4′-bipyridin]-1′(2′H)-yl)methyl)-1-(oxetan-2-ylmethyl)-1H-benzo[d]imidazole-6-carboxylic add] | ≥ 7.82
O=C(O)c1ccc2nc(CN3CCN(c4nc(OCc5ccc(Cl)cc5F)ncc4F)CC3)n(C[C@@H]3CCO3)c2c1 [Compound 179, (S)-2-((4-(2-(4-chloro-2-fluorobenzyloxy)-5-fluoropyrimidin-4-yl)piperazin-1-yl)methyl)-1-(oxetan-2-ylmethyl)-1H-benzo[d]imidazole-6-arboxylic acid] | ≥ 7.82
O=C(O)c1ccc2nc(CN3CC=C(c4cccc(OCc5ccc(-n6ccnn6)cc5)n4)CC3)n(C[C@@H]3CCO3)c2c1 [Compound 244, (S)-2-((6-((4-(1H-1,2,3-triazol-1-yl)benzyl)oxy)-3′,6′-dihydro-[2,4′-bipyridin]-1′(2′H)-yl)methyl)-1-(oxetan-2-ylmethyl)-1H-benzo[d]imidazole-6-carboxylic add] | ≥ 7.82
O=C(O)c1ccc2nc(CC3CCN(c4cccc(OCc5ccc(Cl)cn5)n4)CC3)n(C[C@@H]3CCO3)c2n1 [Compound 230, (S)-2-((l-(6-((5-chloropyridin-2-yl)methoxy)pyridin-2-yl)piperidin-4-yl)methyl)-3-(oxetan-2-ylmethyl)-3H-imidazo[4,5-b]pyridine-5-carboxylic acid] | ≥ 6.82
N#CC1(c2cccc(OCc3ccc(Cl)cc3F)n2)CCN(Cc2nc3ccc(C(=O)O)cc3n2C[C@@H]2CCO2)CC1 [Compound 66, (S)-2-((4-(6-((4-chloro-2-fluorobenzyl)oxy)pyridin-2-yl)-4-cyanopiperidin-1-yl)methyl)-1-(oxetan-2-ylmethyl)-1H-benzo[d]imidazole-6-carboxylic acid] | < 6.00
Cn1cnc2ccc(COc3cccc(C4=CCN(Cc5nc6ccc(C(=O)O)cc6n5C[C@@H]5CCO5)CC4)n3)cc21 [Compound 241, (S)-2-((6-((1-methyl-1H-benzo[d]imidazol-6-yl)methoxy)-3′,6′-dihydro-[2,4′-bipyridin]-(2′H)-yl)methyl)-1-(oxetan-2-ylmethyl)-1H-benzo[d]imidazole-6-carboxylic add] | ≥ 6.82
